Measurements taken from patent publication US20230322744A1, “COMPOUNDS AS GLP-1R AGONISTS” (Terns Pharmaceuticals, Inc., priority 2020, published 2023).

Target: wild-type human GLP-1R (Homo sapiens, UniProt P43220)
Assay: GLP-1R Cell Assay 1 (cAMP Hunter CHO-K1 GLP1R Gs cell line, HitHunter cAMP assay)
Type: cell-based
Conditions: agonist activity, cellular cAMP, CHO-K1 overexpressing human GLP-1R; normalized to Exendin-4; Table 3; no stereo designation = tested as mixture of stereoisomers
Protocol: GLP-1R mediated agonist activity was determined using the cAMP Hunter CHO-K1 GLP1R Gs cell line (DiscoverX, cat #95-0062C2), a stable CHO-K1 derived cell lines overexpressing naturally Gs coupled wild-type human GLP-1R (accession number: NM_002062.3). GLP-1R agonism in this cell line was detected by measuring cellular cAMP levels using the HitHunter cAMP assay kit (cat #90-0075SM2), a homogenous, gain-of-signal competitive immune assay based on Enzyme Fragment Complementation (EFC) technology. In this system cellular cAMP competes with exogenous labeled cAMP (ED-cAMP) for binding to an anti-cAMP antibody. […] The luminescent signal is directly proportional to the amount of cellular cAMP.
For compound testing, cells were seeded in a total volume of 20 μL in white walled, 384-well microplates and incubated at 37° C. prior to compound testing. Prior to compound addition, cell culture media was removed by aspiration and replaced with 15 μL reagent buffer (2:1 HBSS/10 mM HEPES: cAMP XS+Ab reagent). […] Microplates were read on a PerkinElmer Envision instrument. Compound activity was analyzed using CBIS data analysis suite (ChemInnovation). Percent activity was calculated based on duplicate assay runs and normalized to the positive control Exendin-4, a GLP-1R peptide agonist, using the following formula: […]

wild-type human GLP-1R, sequence (P43220 24-463): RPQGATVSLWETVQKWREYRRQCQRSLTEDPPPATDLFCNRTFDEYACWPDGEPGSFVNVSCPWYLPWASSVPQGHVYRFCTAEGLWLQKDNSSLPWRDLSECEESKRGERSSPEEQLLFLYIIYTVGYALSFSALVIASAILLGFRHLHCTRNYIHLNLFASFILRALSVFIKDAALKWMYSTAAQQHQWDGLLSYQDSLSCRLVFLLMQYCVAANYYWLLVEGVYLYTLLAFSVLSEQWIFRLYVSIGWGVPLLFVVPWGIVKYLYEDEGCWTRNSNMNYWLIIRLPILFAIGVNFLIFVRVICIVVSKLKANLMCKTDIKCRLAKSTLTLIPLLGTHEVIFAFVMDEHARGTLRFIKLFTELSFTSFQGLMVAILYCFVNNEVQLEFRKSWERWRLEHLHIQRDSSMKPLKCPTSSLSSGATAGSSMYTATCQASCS

EC50: 59.4 nM
SMILES: CCn1cncc1Cn1c(CN2CC[C@]3(c4cccnc4OCc4ccc(C#N)cc4F)C[C@@H]3C2)nc2ccc(C(=O)O)cc21 (single isomer, unassigned) [Compound 166, 2-((6-(2-((4-cyano-2-fluorobenzyl)oxy)pyridin-3-yl)-3-azabicyclo[4.1.0]heptan-3-yl)methyl)-1-((1-ethyl-1H-imidazol-5-yl)methyl)-1H-benzo[d]imidazole-6-carboxylic acid]
